Drawing on patent publication EP0610475B1, “NERVE-DERIVED TRANSG[…] USEFUL FOR INDUCING NERVE REGENERATION” (YEDA RESEARCH AND DEVELOPMENT COMPANY, LTD., priority 1992, dated 1994), this text covers Km for one molecule.

The subject of the assay is nerve-derived transglutaminase (TGN) purified from regenerating fish optic nerve, Carp (Cyprinus carpio), 55 kDa. How it is done:
The incorporation of radioactive putrescine to a carrier protein is an assay characteristic of enzymes of the transglutaminase family. Any carrier protein that has lysine residues may be used in the assay, such as casein, bovine serum albumin, etc.
In this example, activity characteristic of the nerve-derived transglutaminase was measured by incorporation of [^14C)putrescine into N,N-dimethylcasein (Chakrabarty et al., 1987). The purified TGN enzyme eluted from the TG-Ab affinity column with glycine in Example 3 was dialyzed for 2 hours in the presence of N,N-dimethylcasein (1 mg/ml), before being added to the reaction mixture. The reaction was initiated by addition of […] TGN ([…]), followed by incubation for 20 min at 37°C and terminated by the addition of ice-cold trichloroacetic acid (TCA; final concentration, 5%).
The enzyme activity was titrated with respect to temperature and pH and substrate concentration. […] Titration was carried out by measuring incorporation of [^14C]putrescine to caseine in the presence of TGN.

Like-named read-outs stand apart in the source and are kept apart here.

As to `NCCCCN` [putrescine], the Km was 0.55 µM (incorporation of [^14C]putrescine to caseine in the presence of TGN, calculated from titration of activity as a function of substrate concentration, 20 min at 37°C) and 0.55 µM (read-out: Km in the incorporation of putrescine, calculated as a function of substrate, list of TGN characteristics, unit inferred).
